In brackets after ≈: the same amount, converted by molar mass. Where two headings read alike, the source gives them in different places.
How the values were obtained:
[1] = system: M. tuberculosis ATCC 35838 (H37Rv-R-R); experiment: microbe, parasite or virus in culture; format: cell-based; conditions: Mycobacterium tuberculosis, 336 h
CYP2C8/9 = experiment: Tolubutamide methylhydroxylation in human liver microsomes; format: in vitro ADME; conditions: 400 μM tolbutamide
[2] = system: M. tuberculosis ATCC 35812 (Kurono); experiment: Susceptibility testing (agar dilution MIC); format: cell-based; conditions: Mycobacterium tuberculosis, ATCC35812, 336 h; 7H11 agar, 37 °C, 14 d; read-out: MIC
[3] = system: M. tuberculosis ATCC 35820 (H37Rv-S-R); experiment: microbe, parasite or virus in culture; format: cell-based; conditions: Mycobacterium tuberculosis, 336 h
[4] = system: clinically isolated M. tuberculosis; experiment: microbe, parasite or virus in culture; format: cell-based; conditions: for MIC90: Mycobacterium tuberculosis, read-out: MIC90
[5] = system: mycolic acid synthesis in M. bovis BCG; experiment: microbe, parasite or virus in culture; format: cell-based; conditions: for IC50: Mycobacterium tuberculosis variant bovis BCG, BCG
[6] = system: M. tuberculosis ATCC 35822 (H37Rv-H-R); experiment: microbe, parasite or virus in culture; format: cell-based; conditions: Mycobacterium tuberculosis, 336 h
CYP2D6 = target: T1, CYP2D6 (Homo sapiens, UniProt P10635); experiment: Bufuralol 1′ -hydroxylation in human liver microsomes; format: in vitro ADME; conditions: 20 μM bufuralol
T1 construct: Standard incubation mixtures of 0.5 ml contained microsomal protein (0.1–0.5 mg); from tissue; host or cells: pooled human liver microsomes (ten donors)
T1 sequence (P10635 whole entry): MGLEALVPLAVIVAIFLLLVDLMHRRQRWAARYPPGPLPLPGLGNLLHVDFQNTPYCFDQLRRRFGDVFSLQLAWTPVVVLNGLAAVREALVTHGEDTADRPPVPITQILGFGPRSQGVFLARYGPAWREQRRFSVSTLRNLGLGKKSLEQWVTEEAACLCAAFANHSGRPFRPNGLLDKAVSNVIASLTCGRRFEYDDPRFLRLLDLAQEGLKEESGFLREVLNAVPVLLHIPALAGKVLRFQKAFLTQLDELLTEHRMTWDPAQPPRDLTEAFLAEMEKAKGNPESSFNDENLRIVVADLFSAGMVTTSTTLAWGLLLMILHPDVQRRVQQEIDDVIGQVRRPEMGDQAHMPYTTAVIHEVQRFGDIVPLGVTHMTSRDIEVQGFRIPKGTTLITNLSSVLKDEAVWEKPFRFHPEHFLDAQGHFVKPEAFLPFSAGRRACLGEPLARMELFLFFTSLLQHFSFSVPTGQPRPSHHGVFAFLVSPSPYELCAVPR

CYP1A1/2 = experiment: 7-Ethoxyresorufin O-deethylation in human liver microsomes; format: in vitro ADME; conditions: 0.5 μM 7-ethoxyresorufin
E. coli WP2 uvr A = experiment: Bacterial reverse mutation (BRM) test; format: cell-based
Experimental: (§1) The BRM test was performed in accordance with OECD Guideline 471 using Salmonella tyiphimurium TA98, TA100, TA1535, and TA1537, and Escherichia coli WP2 uvrA [11]. Each bacterial strain was pre-cultured at 37 °C for 18 h using a nutrient broth (Nissui Pharmaceutical; http://www.nissui-pharm.co.jp/index_e.html). After adjustment to 2.4 at OD660 nm, each bacterial suspension was added to a test tube containing the designated compound in the absence or presence of rat liver microsome (S9) mix. After a 20-min incubation at 37 °C, top agar was added to each test tube and the contents were poured into minimum essential medium (Oriental Yeast; http://www.oyc.co.jp/e/index.htm). The number of revertants was counted 48 h after incubation at 37 °C.

S. typhimurium TA1535 = experiment: Bacterial reverse mutation (BRM) test; format: cell-based
Experimental: as §1

S. typhimurium TA1537 = experiment: Bacterial reverse mutation (BRM) test; format: cell-based
Experimental: as §1

S. typhimurium TA98 = experiment: Bacterial reverse mutation (BRM) test; format: cell-based
Experimental: as §1

CYP2B6 = target: T2, CYP2B6 (Homo sapiens, UniProt P20813); conditions: […] 7-benzyloxyresorufin
T2 sequence (P20813 1-491): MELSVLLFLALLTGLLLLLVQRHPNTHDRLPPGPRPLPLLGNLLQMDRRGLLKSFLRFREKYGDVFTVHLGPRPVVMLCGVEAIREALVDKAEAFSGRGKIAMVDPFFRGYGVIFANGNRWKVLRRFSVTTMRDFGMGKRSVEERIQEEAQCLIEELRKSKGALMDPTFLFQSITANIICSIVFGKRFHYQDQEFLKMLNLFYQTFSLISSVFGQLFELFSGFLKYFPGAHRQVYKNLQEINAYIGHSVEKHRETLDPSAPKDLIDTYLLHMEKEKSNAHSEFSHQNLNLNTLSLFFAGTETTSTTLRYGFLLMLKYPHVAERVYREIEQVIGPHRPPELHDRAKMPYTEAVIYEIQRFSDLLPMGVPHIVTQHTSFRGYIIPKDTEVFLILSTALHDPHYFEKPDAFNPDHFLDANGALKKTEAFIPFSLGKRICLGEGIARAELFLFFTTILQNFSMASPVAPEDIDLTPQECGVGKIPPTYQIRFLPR

[7] = system: clinically isolated M. tuberculosis (27 test strains); experiment: Checkerboard method, combination with existing TB drugs; format: cell-based; conditions: antagonism = FIC index >4.0
Source text: In addition, the efficacy of OPC-67683 in combination with currently used anti-TB drugs RFP, INH, EB, and SM was examined in vitro using the checkerboard method.

[8] = system: Salmonella tyiphimurium TA98, TA100, TA1535, and TA1537, and Escherichia coli WP2 uvrA; experiment: Bacterial reverse mutation (BRM) test, overall result; format: cell-based; conditions: absence and presence of S9 mix, OECD Guideline 471
Experimental: as §1

## C[C@]1(COc2ccc(N3CCC(Oc4ccc(OC(F)(F)F)cc4)CC3)cc2)Cn2cc([N+](=O)[O-])nc2O1 [OPC-67683, (R)-2-methyl-6-nitro-2-(4-[4-(4-trifluoromethoxyphenoxy)piperidin-1-yl]phenoxymethyl}-2,3-dihydroimidazo[2,1-b]oxazole]
[1]
  MIC: 0.006 µg/mL (≈ 0.0112 µM)
CYP2C8/9; 10 μM
  Percent of Control: 107.2% of Control
CYP2C8/9; 30 μM
  Percent of Control: 107.8% of Control
CYP2C8/9; 100 μM
  Percent of Control: 108.5% of Control
[2]
  MIC: 0.012 µg/mL (≈ 0.0225 µM)
[3]
  MIC: 0.012 µg/mL (≈ 0.0225 µM)
[4]
  MIC90 of OPC-67683 times lower than that of EB: ~303 times
  MIC90 of OPC-67683 times lower than that of INH: eight
  MIC90 of OPC-67683 times lower than that of RFP: about 24 times
  MIC90 of OPC-67683 times lower than that of SM: ~244 times
  MIC90: 0.012 µg/mL (≈ 0.0225 µM)
[4]; EB-susceptible M. tuberculosis (56 strains)
  MIC90: 0.0121 µg/mL (≈ 0.0227 µM)
[4]; INH-susceptible M. tuberculosis (31 strains)
  MIC90: 0.0119 µg/mL (≈ 0.0223 µM)
[4]; RFP-susceptible M. tuberculosis (31 strains)
  MIC90: 0.0125 µg/mL (≈ 0.0233 µM)
[4]; SM-susceptible M. tuberculosis (49 strains)
  MIC90: 0.012 µg/mL (≈ 0.0225 µM)
[5]; 14C acetic acid incorporation, 60 min, TLC n = 3
  IC50, α-Mycolic acid: >0.25 µg/mL
[5]; 1 h, read-out: IC50, Fatty acid
  IC50: > 0.25 µg/mL
[5]; 1 h, read-out: IC50, Keto-mycolic acid
  IC50: 0.021 µg/mL (≈ 0.0393 µM)
[5]; 1 h, read-out: IC50, Methoxy-mycolic acid
  IC50: 0.036 µg/mL (≈ 0.0674 µM)
[5]; 1 h, read-out: IC50, α-Mycolic acid
  IC50: > 0.25 µg/mL
[5]; read-out: IC50 values, synthesis of methoxy- and keto-mycolic acid
  IC50: 0.021 to 0.036 µg/mL (≈ 0.0393 to 0.0674 µM)
[6]
  MIC: 0.012 µg/mL (≈ 0.0225 µM)
CYP2D6; 10 μM
  Percent of Control: 99.1% of Control
CYP2D6; 30 μM
  Percent of Control: 103.3% of Control
CYP2D6; 100 μM
  Percent of Control: 97.8% of Control
CYP1A1/2; 10 μM
  Percent of Control: 98.4% of Control
CYP1A1/2; 30 μM
  Percent of Control: 102.5% of Control
CYP1A1/2; 100 μM
  Percent of Control: 98.6% of Control
E. coli WP2 uvr A; S9 mix +, 312.5 μg/plate
  Revertants/Plate: 23 Revertants/Plate
E. coli WP2 uvr A; S9 mix +, 625 μg/plate
  Revertants/Plate: 20 Revertants/Plate
E. coli WP2 uvr A; S9 mix +, 1,250 μg/plate
  Revertants/Plate: 25 Revertants/Plate
E. coli WP2 uvr A; S9 mix +, 2,500 μg/plate
  Revertants/Plate: 23 Revertants/Plate
E. coli WP2 uvr A; S9 mix +, 5,000 μg/plate
  Revertants/Plate: 29 Revertants/Plate
E. coli WP2 uvr A; S9 mix −, 312.5 μg/plate
  Revertants/Plate: 23 Revertants/Plate
E. coli WP2 uvr A; S9 mix −, 625 μg/plate
  Revertants/Plate: 25 Revertants/Plate
E. coli WP2 uvr A; S9 mix −, 1,250 μg/plate
  Revertants/Plate: 20 Revertants/Plate
E. coli WP2 uvr A; S9 mix −, 2,500 μg/plate
  Revertants/Plate: 24 Revertants/Plate
E. coli WP2 uvr A; S9 mix −, 5,000 μg/plate
  Revertants/Plate: 24 Revertants/Plate
S. typhimurium TA1535; S9 mix +, 625 μg/plate
  Revertants/Plate: 6 Revertants/Plate
S. typhimurium TA1535; S9 mix +, 2,500 μg/plate
  Revertants/Plate: 8 Revertants/Plate
S. typhimurium TA1535; S9 mix +, 5,000 μg/plate
  Revertants/Plate: 9 Revertants/Plate
S. typhimurium TA1535; S9 mix −, 312.5 μg/plate
  Revertants/Plate: 6 Revertants/Plate
S. typhimurium TA1535; S9 mix −, 625 μg/plate
  Revertants/Plate: 9 Revertants/Plate
S. typhimurium TA1535; S9 mix −, 2,500 μg/plate
  Revertants/Plate: 7 Revertants/Plate
S. typhimurium TA1535; S9 mix −, 5,000 μg/plate
  Revertants/Plate: 6 Revertants/Plate
S. typhimurium TA1537; S9 mix +, 312.5 μg/plate
  Revertants/Plate: 73 Revertants/Plate
S. typhimurium TA1537; S9 mix +, 625 μg/plate
  Revertants/Plate: 72 Revertants/Plate
S. typhimurium TA1537; S9 mix +, 1,250 μg/plate
  Revertants/Plate: 66 Revertants/Plate
S. typhimurium TA1537; S9 mix +, 2,500 μg/plate
  Revertants/Plate: 63 Revertants/Plate
S. typhimurium TA1537; S9 mix +, 5,000 μg/plate
  Revertants/Plate: 74 Revertants/Plate
S. typhimurium TA1537; S9 mix −, 312.5 μg/plate
  Revertants/Plate: 60 Revertants/Plate
S. typhimurium TA1537; S9 mix −, 625 μg/plate
  Revertants/Plate: 62 Revertants/Plate
S. typhimurium TA1537; S9 mix −, 1,250 μg/plate
  Revertants/Plate: 54 Revertants/Plate
S. typhimurium TA1537; S9 mix −, 2,500 μg/plate
  Revertants/Plate: 61 Revertants/Plate
S. typhimurium TA1537; S9 mix −, 5,000 μg/plate
  Revertants/Plate: 63 Revertants/Plate
S. typhimurium TA98; S9 mix +, 312.5 μg/plate
  Revertants/Plate: 31 Revertants/Plate
S. typhimurium TA98; S9 mix +, 625 μg/plate
  Revertants/Plate: 31 Revertants/Plate
S. typhimurium TA98; S9 mix +, 1,250 μg/plate
  Revertants/Plate: 30 Revertants/Plate
S. typhimurium TA98; S9 mix +, 2,500 μg/plate
  Revertants/Plate: 31 Revertants/Plate
S. typhimurium TA98; S9 mix +, 5,000 μg/plate
  Revertants/Plate: 35 Revertants/Plate
S. typhimurium TA98; S9 mix −, 312.5 μg/plate
  Revertants/Plate: 29 Revertants/Plate
S. typhimurium TA98; S9 mix −, 625 μg/plate
  Revertants/Plate: 29 Revertants/Plate
S. typhimurium TA98; S9 mix −, 1,250 μg/plate
  Revertants/Plate: 34 Revertants/Plate
S. typhimurium TA98; S9 mix −, 2,500 μg/plate
  Revertants/Plate: 37 Revertants/Plate
S. typhimurium TA98; S9 mix −, 5,000 μg/plate
  Revertants/Plate: 31 Revertants/Plate
CYP2B6; 10 μM
  Percent of Control: 118.3% of Control
CYP2B6; 30 μM
  Percent of Control: 112.8% of Control
CYP2B6; 100 μM
  Percent of Control: 122.3% of Control
[7]
  Antagonistic activity in combination with RFP, INH, EB, and SM: no antagonistic activity
[8]
  Mutagenic potential in the BRM test: did not show mutagenicity

Source: paper PMC1664607 (PLoS Medicine, 2006)
